# From US5208344A, “Naphthalenepropionic acid derivatives as anti-inflammatory/antiallergic agents” (American Home Products Corporation, priority 1991, dated 1993)
# Structures can show the parent of a compound that is named as a salt.
# What was measured:
# [1] = target: T1, LTD4 (Cavia porcellus, UniProt Q2NNR5); test: LTD4 antagonist activity in isolated guinea pig trachea; assay type: cell-based; conditions: 1 × 10^-5 M
# T1 construct: isolated guinea pig trachea; from tissue; host or cells: guinea pig tracheal rings
# T1 sequence (Q2NNR5 1-340): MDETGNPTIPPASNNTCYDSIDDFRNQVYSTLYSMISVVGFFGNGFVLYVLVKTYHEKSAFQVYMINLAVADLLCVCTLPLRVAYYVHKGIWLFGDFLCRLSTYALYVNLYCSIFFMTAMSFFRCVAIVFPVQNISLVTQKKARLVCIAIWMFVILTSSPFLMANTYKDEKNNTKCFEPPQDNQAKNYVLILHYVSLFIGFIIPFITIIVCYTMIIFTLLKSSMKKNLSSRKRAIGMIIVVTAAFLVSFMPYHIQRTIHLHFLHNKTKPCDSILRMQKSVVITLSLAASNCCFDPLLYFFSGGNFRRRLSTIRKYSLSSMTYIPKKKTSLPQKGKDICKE
# Experimental: The LTD4 antagonist activity of the compounds of the invention is assessed in the in vitro isolated guinea pig trachea assay. Male Hartley guinea pigs (350-400 g) are euthanized by a blow to the head, the neck is opened and the trachea removed. The trachea is maintained in aerated physiological salt solution, cleared of connective tissue and fat and cut into rings approximately 2 mm in width (usually containing two cartilaginous segments per ring). Two pieces of silk suture are then passed through the lumen of the tracheal ring and are tied around the cartilage, one on each side of the trachealis muscle. The tracheal ring is suspended between a glass hook and a force displacement transducer in a 10 ml organ bath for measurement of isometric tension. Tissues are maintained at 37° C. in aerated ([…] /5% CO2) physiological salt solution of the following composition: […] The tracheal rings are maintained at 2 g resting tension and equilibrated for 45 minutes (with frequence washing and readjustment of resting tension). The tracheal rings are first contracted by the addition of carbachol (3×10^-6 M), to determine tissue responsiveness and establish a reference contraction. On attainment of a stable level of contraction (approximately 30 minutes), the tissues are washed several times until baseline tension has been restored and the re-equilibrated for 30 minutes. The tissues are then incubated for 45 minutes with a test antagonist (either 1×10^-6 M or 1×10^-5 M) or 10 μl of an appropriate solvent control (control, non-treated). One tissue in each group serves as the control. Twenty minutes prior to the construction of the LTD4 cumulative concentration-response curve, L-[…]×10^-2 M final bath concentration) is added to inhibit bioconversion of LTD4 to LTE4. Only one LTD4 concentration-response curve is constructed in each tissue. All responses to LTD4 in an individual tissue are measured as a percentage of the reference contraction of that tissue to carbachol. LTD4 antagonist activity is determined by comparison of the concentration response curves of LTD4 in the presence and absence of antagonist. Assessment of the relative rightward shift of the antagonist treated curve relative to the solvent (control) treated tissue is calculated as a concentration ratio (Eq. A) and used in subsequent calculations to derive an antagonist pKB value (Eqs. B and C). In the vent that the maximum response to LTD4 is depressed, the EC50 for that particular curve is determined, an "apparent" pKB reported, and the compound reported as "not-competitive." [formula] If a compound is found to be active and/or depress the maximal response to LTD4, then a range of concentrations of the test compound should be used generating multiple concentration ratios which would than be used to perform a Schild analysis, and determination of a pA2 value where appropriate.
# [2] = system: cyclooxygenase; test: inhibition of synthesis of cyclooxygenase products TxB2 and PGE2 (rat polymorphonuclear leukocytes); assay type: cell-based; conditions: 10 μM; rat PMN; negative = potentiation of PGE2 synthesis
# Outline: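 Glycogen-elicited peritoneal PMN from female Wistar rats, 2×10^7 cells/ml in HBSS with Ca^++, Mg^++ and 10 mM L-cysteine, preincubated with compound 10 min at 37° C. Stimulated 10 min with A23187 (10 μM) plus 0.5 μM [14C] arachidonic acid; TxB2 and PGE2 quantified by TLC, autoradiography and scintillation counting.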
Kb [1] [nM],Structure (SMILES),% Inhibition of CO (as PGE2) [2] [%]
501,"C[C@H](C(=O)N(C)O)c1ccc2cc(OCc3ccc4ccccc4n3)ccc2c1 [Example 24, (S)-N-Hydroxy-α-N-dimethyl-6-(2-quinolinylmethoxy)-2-naphthaleneacetamide]",13
631,"C[C@H](C(=O)O)c1ccc2cc(OCc3ccc4ccccc4n3)ccc2c1 [Example 17, S-(α)-α-Methyl-6-(2-quinolinylmethoxy)-2-naphthaleneacetic acid, tromethanime salt]",20
